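Following 48 hours of exposure in 96-well plates, responses at five concentrations were used to interpolate endpoints linearly. TGI is the concentration that stops growth completely.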
Tested on: RXF-631 renal
Assay: NCI tumour cell line growth inhibition, 48 h

Compound	TGI
C#CCOc1c(C(=O)OCC)c(=O)n(C)c2ccccc12	> 100 µM

Tested on: KM20L2 colon
Assay: NCI tumour cell line growth inhibition, 48 h

Compound	TGI
CC(=O)OC(C)C1C2=C(C(=O)CC1(C)O)C(=O)c1c(ccc(-c3ccc4c(c3O)C(=O)C3=C(C4=O)C(C(C)OC(C)=O)C(C)(O)CC3=O)c1O)C2=O (stereo unspecified)	4.59 µM
CSc1nc(Cl)c(Br)c(Sc2nc(N)nc3nc[nH]c23)n1	18.8 µM
C#CCOc1c(C(=O)OCC)c(=O)n(C)c2ccccc12	> 100 µM
O=C1CCC(=O)N1Cc1ccccc1N=[N+]([O-])c1ccccc1CN1C(=O)CCC1=O	> 100 µM
N#CN=C(N)NC(=O)/C=C/C=C/c1ccc(Cl)cc1	> 100 µM

— PubChem BioAssay (NCI)
